SMILES strings stand for the structures. Non-standard residues stand in square brackets, D forms with d. Residues, ends and D or L forms follow the SMILES beside them. *: point of attachment. Benzofuran(2-CO) = O=C(c1cc2ccccc2o1)*; X1 = O=C(c1cc2ccc(Br)cc2o1)*; NMeA = CN[C@@H](C)C(=O)O; Ms = CS(=O)(=O)*

The target in this test is T1, YEATS2 YEATS domain (Homo sapiens, UniProt Q9ULM3).
T1 construct: 201-332 containing an N-terminal 10×His-SUMO tag was overexpressed in Escherichia coli BL21 (DE3); 10×His-SUMO (N, cleaved yes); made in house; host or cells: Escherichia coli BL21 (DE3)
T1 sequence (Q9ULM3 201-332 limits assumed): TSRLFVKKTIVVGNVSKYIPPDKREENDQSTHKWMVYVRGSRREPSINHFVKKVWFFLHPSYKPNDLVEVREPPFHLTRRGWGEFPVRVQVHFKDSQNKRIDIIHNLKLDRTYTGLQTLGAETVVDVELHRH
The test can be described thus: competitive photo-cross-linking assay. It counts as binding. As for the experimental part: The probes in the absence or presence of different concentrations of competitors were incubated with recombinant proteins (5 or 20 ng/µL) in binding buffer (50 mM HEPES, 150 mM NaCl, 2 mM MgCl2, 0.1% Tween-20, 20% glycerol, pH 7.5, with 50 ng/µL BSA) for 10 min at 4° C. Then, the samples were irradiated at 365 nm using UV lamp for 20 min in 96-well on ice.
To the prepared photo-cross-linking samples, we added 100 µM rhodamine-N3 for in-gel fluorescence (10 mM stock in DMSO), followed by 1 mM TCEP (freshly prepared 50 mM stock in H2O) and 100 µM TBTA (10 mM stock in DMSO); finally, the reactions were initiated by the addition of 1 mM CuSO4 (freshly prepared 50 mM stock in H2O). The reactions were incubated for 1 h at room temperature (22 to 25° C.) with regular vortexing. The reactions were quenched by adding 5 volumes of ice-cold acetone and placed at — 20° C. overnight to precipitate proteins.
Samples after protein precipitation were centrifuged at 13,000 × g for 5 min at 4° C. The supernatant was discarded, and the pellet was washed with ice-cooled acetone and air-dried for 10 min. The proteins were resuspended in 1 × LDS sample loading buffer (Invitrogen, Waltham, MA) with 50 mM DTT and heated at 95° C. for 8 min. Samples were then resolved by SDS-PAGE. […]
YEATS domain of YEATS2 is newly identified as histone benzoylation reader. […]

For the compound `C[C@H](NC(=O)[C@H](CO)NC(=O)[C@H](CCCCNC(=O)c1cc2ccccc2o1)NS(C)(=O)=O)C(=O)N1CCC[C@H]1C(N)=O` [MsKSAP] (Ms-K(Benzofuran(2-CO))SAP-NH2), for the setting “Table 2”, the concentration for half-maximal inhibition (IC50) turned out to be 600 nM. As to `C[C@@H](C(=O)N1CCC[C@H]1C(N)=O)N(C)C(=O)[C@H](CO)NC(=O)[C@H](CCCCNC(=O)c1cc2ccc(Br)cc2o1)NS(C)(=O)=O` [HC18] (Ms-K(X1)S[NMeA]P-NH2), the “inhibitory activity / potency against YEATS2 YEATS (in words)” value is “maintained the inhibitory activity”.

Values taken from patent US20230355705A1, “DISCOVERY OF YEATS2 YEATS DOMAIN INHIBITORS AS NOVEL ANTI-CANCER AGENTS” (The University of Hong Kong, priority 2022, published 2023).
